Data: the supplement of paper PMC11208160

Assay: recombinant UMI read abundance after kanamycin selection (control-corrected) (log10(CPM+1)); higher = more efficient recombination; extreme values may be limits of the assay; sequences stand for … in AGTGCAGAGAAAATCGGCCAGTTTTCTCTGCCTGCAGTCCGCATGCCGTGGGACCCCTTGGGTTCTAACCTGTTGCCTAGATTTATGCAGCGGACTGCCTTTCTCCCAAAGTGATAAACCGG…AGGTTGGTTTCACT; site = the 11-nt donor
Procedure, shortened: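 The measure is log10(CPM+1) for recombinant UMIs. These were PCR-amplified across the donor–target junction and sequenced after Escherichia coli carrying a donor and donor-binding-loop pair library and a target plasmid with T7-inducible IS621 bridge recombinase was plated on IPTG (0.07 mM) plus kanamycin or unselected. CPM were averaged over two replicates and scaled by control-derived factors.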
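Note: IS621 bridge recombinase in Escherichia coli cells against a fixed T5 target plasmid.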

Sequence | recombinant UMI read abundance (log10)
GTTAGAACATGGACCGGTTTTCCCGGTAATCCGTATTTGGT (site GTTAGAACTTC) | 0.0194
GTTAGACCATGGACCGGTTTTCCCGGTAATCCGTATTTGGA (site GTTAGACCTTC) | 0.00772
GTTAGACCATGGACCGGTTTTCCCGGTAATCCGTATTTGGC (site GTTAGAACTGC) | 0
GTTAGACCATGGACCGGTTTTCCCGGTAATCCGTATTTGGC (site GTTAGACCTGC) | 0
GTTAGACCATGGACCGGTTTTCCCGGTAATCCGTATTTGGC (site GTTAGAGCTGC) | 0
GTTAGACCATGGACCGGTTTTCCCGGTAATCCGTATTTGGC (site GTTAGATCTGC) | 0
GTTAGAGCATGGACCGGTTTTCCCGGTAATCCGTATTTGGC (site GTTAGAACTGC) | 2.02
GTTAGAGCATGGACCGGTTTTCCCGGTAATCCGTATTTGGC (site GTTAGACCTGC) | 0
GTTAGAGCATGGACCGGTTTTCCCGGTAATCCGTATTTGGC (site GTTAGAGCTGC) | 2.22
GTTAGAGCATGGACCGGTTTTCCCGGTAATCCGTATTTGGC (site GTTAGATCTGC) | 1.51
GTTAGGACATGGACCGGTTTTCCCGGTAATCCGTATTTGGC (site GTTAGAACTGC) | 1.16
GTTAGGACATGGACCGGTTTTCCCGGTAATCCGTATTTGGC (site GTTAGCACTGC) | 0
GTTAGGACATGGACCGGTTTTCCCGGTAATCCGTATTTGGC (site GTTAGGACTGC) | 2.84
GTTAGGACATGGACCGGTTTTCCCGGTAATCCGTATTTGGC (site GTTAGTACTGC) | 0
GTTATTCCATGGACCGGTTTTCCCGGTAATCCGTATTTGGT (site GTTATTCCTAC) | 0.469
GTTATTCCATGGACCGGTTTTCCCGGTAATCCGTATTTGGT (site GTTCTTCCTAC) | 0
GTTATTCCATGGACCGGTTTTCCCGGTAATCCGTATTTGGT (site GTTGTTCCTAC) | 0.00973
GTTATTCCATGGACCGGTTTTCCCGGTAATCCGTATTTGGT (site GTTTTTCCTAC) | 0
GTTCACGCATGGACCGGTTTTCCCGGTAATCCGTATTTGTT (site GTTCACGCTAA) | 1
GTTCATACATGGACCGGTTTTCCCGGTAATCCGTATTTGTG (site GTTCATACTCA) | 0.505
GTTCCGGCATGGACCGGTTTTCCCGGTAATCCGTATTTGCC (site GTTCCGGCTGG) | 0
GTTCGAGCATGGACCGGTTTTCCCGGTAATCCGTATTTGAA (site GTTCGAGCTTA) | 0.307
GTTCGAGCATGGACCGGTTTTCCCGGTAATCCGTATTTGAA (site GTTCGAGCTTC) | 0
GTTCGAGCATGGACCGGTTTTCCCGGTAATCCGTATTTGAA (site GTTCGAGCTTG) | 0
GTTCGAGCATGGACCGGTTTTCCCGGTAATCCGTATTTGAA (site GTTCGAGCTTT) | 1.41

Sequence | recombinant UMI read abundance (log10)
GTTCGAGCATGGACCGGTTTTCCCGGTAATCCGTATTTGCT (site GTTCGAGCTAG) | 1.9
GTTCGAGCATGGACCGGTTTTCCCGGTAATCCGTATTTGCT (site GTTCGAGCTCG) | 0.664
GTTCGAGCATGGACCGGTTTTCCCGGTAATCCGTATTTGCT (site GTTCGAGCTGG) | 0.928
GTTCGAGCATGGACCGGTTTTCCCGGTAATCCGTATTTGCT (site GTTCGAGCTTG) | 1.03
GTTCGAGCATGGACCGGTTTTCCCGGTAATCCGTATTTGGA (site GTTCGAGCTTA) | 0.635
GTTCGAGCATGGACCGGTTTTCCCGGTAATCCGTATTTGGA (site GTTCGAGCTTC) | 0.499
GTTCGAGCATGGACCGGTTTTCCCGGTAATCCGTATTTGGA (site GTTCGAGCTTG) | 0
GTTCGAGCATGGACCGGTTTTCCCGGTAATCCGTATTTGGA (site GTTCGAGCTTT) | 0.942
GTTCGATCATGGACCGGTTTTCCCGGTAATCCGTATTTGCC (site GTTCGATCTGG) | 1.92
GTTCGTACATGGACCGGTTTTCCCGGTAATCCGTATTTGCA (site GTTCGTACTTG) | 1.64
GTTCGTACATGGACCGGTTTTCCCGGTAATCCGTATTTGTT (site GTTCGTACTAA) | 0.0105
GTTCGTGCATGGACCGGTTTTCCCGGTAATCCGTATTTGCA (site GTTCGAGCTTG) | 0.585
GTTCGTGCATGGACCGGTTTTCCCGGTAATCCGTATTTGCA (site GTTCGCGCTTG) | 0.0038
GTTCGTGCATGGACCGGTTTTCCCGGTAATCCGTATTTGCA (site GTTCGGGCTTG) | 0.36
GTTCGTGCATGGACCGGTTTTCCCGGTAATCCGTATTTGCA (site GTTCGTGCTTG) | 1.96
GTTGAGACATGGACCGGTTTTCCCGGTAATCCGTATTTGAC (site GTTGAGACTGT) | 2.94
GTTGCTGCATGGACCGGTTTTCCCGGTAATCCGTATTTGAG (site GTTGCTGCTCT) | 0.388
GTTGGACCATGGACCGGTTTTCCCGGTAATCCGTATTTGCC (site GTTGGACCTGG) | 0
GTTGGCCCATGGACCGGTTTTCCCGGTAATCCGTATTTGAG (site GTTGGCCCTCT) | 0.0112
GTTGGGACATGGACCGGTTTTCCCGGTAATCCGTATTTGGC (site GTTGGGACTGC) | 1.53
GTTGGGGCATGGACCGGTTTTCCCGGTAATCCGTATTTGCG (site GTTGGGGCTCG) | 2.05
GTTGTACCATGGACCGGTTTTCCCGGTAATCCGTATTTGGT (site GTTGTACCTAC) | 0
GTTGTACCATGGACCGGTTTTCCCGGTAATCCGTATTTGGT (site GTTGTCCCTAC) | 0.0245
GTTGTACCATGGACCGGTTTTCCCGGTAATCCGTATTTGGT (site GTTGTGCCTAC) | 0.0127
GTTGTACCATGGACCGGTTTTCCCGGTAATCCGTATTTGGT (site GTTGTTCCTAC) | 0

Sequence | recombinant UMI read abundance (log10)
GTTGTGCCATGGACCGGTTTTCCCGGTAATCCGTATTTGGT (site GTTGTACCTAC) | 0.00401
GTTGTGCCATGGACCGGTTTTCCCGGTAATCCGTATTTGGT (site GTTGTCCCTAC) | 0.0044
GTTGTGCCATGGACCGGTTTTCCCGGTAATCCGTATTTGGT (site GTTGTGCCTAC) | 0.0934
GTTGTGCCATGGACCGGTTTTCCCGGTAATCCGTATTTGGT (site GTTGTTCCTAC) | 0.0079
GTTGTGGCATGGACCGGTTTTCCCGGTAATCCGTATTTGAG (site GTTGTGGCTCT) | 1.71
GTTGTTTCATGGACCGGTTTTCCCGGTAATCCGTATTTGGT (site GTTGTTACTAC) | 0.00963
GTTGTTTCATGGACCGGTTTTCCCGGTAATCCGTATTTGGT (site GTTGTTCCTAC) | 0.00733
GTTGTTTCATGGACCGGTTTTCCCGGTAATCCGTATTTGGT (site GTTGTTGCTAC) | 0.0146
GTTGTTTCATGGACCGGTTTTCCCGGTAATCCGTATTTGGT (site GTTGTTTCTAC) | 0.83
GTTTAAACATGGACCGGTTTTCCCGGTAATCCGTATTTGGA (site GTTTAAACTTC) | 0.655
GTTTAGGCATGGACCGGTTTTCCCGGTAATCCGTATTTGGC (site GTTTAGGCTGC) | 2.08
GTTTGCGCATGGACCGGTTTTCCCGGTAATCCGTATTTGGC (site GTTTGCGCTGC) | 2.03
GTTTGTTCATGGACCGGTTTTCCCGGTAATCCGTATTTGAT (site GTTTGTTCTAT) | 0.167
GTTTTTCCATGGACCGGTTTTCCCGGTAATCCGTATTTGGT (site GTTATTCCTAC) | 0.0038
GTTTTTCCATGGACCGGTTTTCCCGGTAATCCGTATTTGGT (site GTTCTTCCTAC) | 0.00946
GTTTTTCCATGGACCGGTTTTCCCGGTAATCCGTATTTGGT (site GTTGTTCCTAC) | 0.0239
GTTTTTCCATGGACCGGTTTTCCCGGTAATCCGTATTTGGT (site GTTTTTCCTAC) | 0
TAAAAGCCATGGACCGGTTTTCCCGGTAATCCGTATTTGAG (site TAAAAGCCTCT) | 0.525
TAAAATCCATGGACCGGTTTTCCCGGTAATCCGTATTTGTA (site TAAAATCCTTA) | 0
TAAAATCCATGGACCGGTTTTCCCGGTAATCCGTATTTGTA (site TAAACTCCTTA) | 1.43
TAAAATCCATGGACCGGTTTTCCCGGTAATCCGTATTTGTA (site TAAAGTCCTTA) | 0.431
TAAAATCCATGGACCGGTTTTCCCGGTAATCCGTATTTGTA (site TAAATTCCTTA) | 0
TAAACCCCATGGACCGGTTTTCCCGGTAATCCGTATTTGTA (site TAAACCCCTTA) | 1.33
TAAACTCCATGGACCGGTTTTCCCGGTAATCCGTATTTGTA (site TAAAATCCTTA) | 0.534
TAAACTCCATGGACCGGTTTTCCCGGTAATCCGTATTTGTA (site TAAACTCCTTA) | 1.32
